We go through 13 compounds from ChEMBL document CHEMBL4387767, “Synthesis of carbazoloquinone derivatives and their antileukemic activity via modulating cellular reactive oxygen species” (Bioorg Med Chem Lett, 2019).

Test [1] relates to HL-60. Nature of the test: Induction of apoptosis in human HL60 cells assessed as chromatin crenation at 1 uM measured after 24 hrs by Hoechst 33342 staining based fluorescence microscopic method. Type of test: functional, cell-based.
Test [2] deals with HL-60. Kind of test: Induction of apoptosis in human HL60 cells assessed as chromatin fragmentation at 1 uM measured after 24 hrs by Hoechst 33342 staining based fluorescence microscopic method. Type of test: functional, cell-based.
Test [3] relates to HL-60. Nature of the test: Induction of reactive oxygen species generation in human HL60 cells assessed as increase in extracellular ROS level at 1 uM measured after 2 hrs by NBT dye-based assay. In kind it is functional, cell-based.
Test [4] deals with HL-60. Kind of test: Cytotoxicity against human HL60 cells assessed as reduction in cell viability measured after 48 hrs by CCK8 assay. The settings on record: HL-60, 48 h. In kind it is functional, cell-based. (In general: Tetrazolium dyes change colour on reduction, which living cells bring about.)
In test [5] the test system is HL-60. Kind of test: Induction of reactive oxygen species generation in human HL60 cells assessed as increase in intracellular ROS level at 1 uM measured after 2 hrs by NBT dye-based assay relative to control. In kind it is functional.
The test system of test [6] is HL-60. Nature of the test: Induction of apoptosis in human HL60 cells assessed as chromatin condensation at 1 uM measured after 24 hrs by Hoechst 33342 staining based fluorescence microscopic method. Type of test: functional, cell-based.
The test system of test [7] is HL-60. Nature of the test: Cytotoxicity against human HL60 cells assessed as cell viability at 10 uM measured after 48 hrs by CCK8 assay relative to control. In kind it is functional. The settings on record: HL-60, 48 h, read-out: Activity.

Activity calls are given as the source filed them. The calls are words filed in the database; no cut-off is given here.

By IC50 is commonly meant the point on the concentration scale where inhibition reaches its midpoint.

`O=C1c2ccccc2C(=O)c2c1oc1ccccc21`: the outcome in test [1], in test [2], in test [3] and in test [6] was Active. For the same compound, the concentration for half-maximal inhibition (IC50) in test [4] (read-out: IC50) is 410 nM. Also, the “fold change (FC)” value in test [5] was 2.3 - 2.4.
Take `CC1=CC(=O)c2[nH]c3ccc(Cl)cc3c2C1=O`: the IC50 in test [4] (read-out: IC50) is 240 nM. Moreover, the viability at 10 µM in test [7] was less than 20%.
Consider `O=C1c2ccccc2C(=O)c2c1[nH]c1ccccc21` [BENZOCARBAZOLEDIONE], for which the IC50 in test [4] (read-out: IC50) was greater than 50000 nM. Moreover, the result in test [5] was Active.
As to `CC1=CC(=O)c2c([nH]c3ccccc23)C1=O`, in test [4] (read-out: IC50), the IC50 was 290 nM. The viability at 10 µM in test [7] was less than 20%.
Turning to `O=C1c2ccccc2C(=O)c2c1sc1ccccc21`, the IC50 in test [4] (read-out: IC50) is greater than 50000 nM.
In the case of `COc1ccc2[nH]c3c(c2c1)C(=O)C(C)=CC3=O`, the IC50 in test [4] (read-out: IC50) stood at 3110 nM. In test [7], the viability at 10 µM was less than 20%.
For the compound `O=C1c2ccccc2C(=O)c2c1[se]c1ccccc21`, the IC50 in test [4] (read-out: IC50) is greater than 50000 nM.
With `COc1ccc2[nH]c3c(c2c1)C(=O)C=C(C)C3=O`, the IC50 in test [4] (read-out: IC50) worked out at 5060 nM. For the same compound, the viability at 10 µM in test [7] was less than 20%.
In the case of `O=c1[nH]cc(F)c(=O)[nH]1` [FLUOROURACIL], the IC50 in test [4] stood at 42800 nM.
In the case of `COc1cc2[nH]c3c(c2cc1OC)C(=O)C(C)=CC3=O`, in test [4] (read-out: IC50), the IC50 was determined as 550 nM. Besides, the viability at 10 µM in test [7] was less than 20%.
As for `CC1=CC(=O)c2[nH]c3ccccc3c2C1=O` [MURRAYAQUINONE A], the result in test [1], in test [2], in test [3] and in test [6] was Active. Also, the IC50 in test [4] (read-out: IC50) worked out at 730 nM. Moreover, the “fold change (FC)” value in test [5] is given as 2.3 - 2.4. For the same compound, in test [7], the viability at 10 µM was less than 20%.
For the compound `COc1ccc2c3c([nH]c2c1)C(=O)C=C(C)C3=O`, the IC50 in test [4] (read-out: IC50) amounted to 1210 nM. Further, the viability at 10 µM in test [7] was less than 20%.
As for `CC1=CC(=O)c2[nH]c3ccc(C(F)(F)F)cc3c2C1=O`, in test [4] (read-out: IC50), the IC50 is 590 nM. For the same compound, the viability at 10 µM in test [7] was less than 20%.
